This note sets out measurements from patent US20080221114A1, “2-(Cyclic Aminocarbonyl) Indoline Derivative and Medicinal Composition Containing the Same” (priority 2005, published 2008).

One data set concerns mice (male ddY). As to the kind of experiment: Social interaction test (antianxiety effect). The data set is classed as in vivo, mouse. The settings on record: oral, 1 hour before test; statistically significant increase in social interaction time vs vehicle (Dunnett's test, 5%). The text has this:
The test is a behavioral pharmacological test wherein social interaction time which would arise between 2 animals (mice, rats or other) in a test apparatus is considered to be as an anxious indicator [see; File, S. E., J. Neurosci. Methods, 2, 219-238 (1980)]. It is known that a bright and unfamiliar test apparatus which is an aversive condition for mice or rats may suppress a social interaction of the animals and such suppressed social interaction may be restored by an antianxiety drug such as benzodiazepines.
A glass beaker which was inverted onto a frosted glass plate was brightly illuminated with a light source (ca. 1200 lux in the apparatus), and it was used as a test apparatus. Two mice (male ddY, 22-32 g) that were housed in separate home cages were orally treated with a test compound and returned to their home cages. One hour after the oral administration, the two mice were then placed together in the test apparatus, and the amount of time spent in social interaction by the two mice during a 15-minute period was recorded. The social interaction was defined as grooming and sniffing of the partner, genital investigation of the partner, climbing over or crawling under the partner. Four to five pairs (8 to 10 mice) were used per a group.
An antianxiety effect of the test compounds was presented as a minimum effective dose which indicated statistically significant increase in social interaction time as compared with a vehicle control group (Dunnett's test, Significance level: 5%).

Data set [1] has as its target T1, mitochondrial benzodiazepine receptor (MBR) (Rattus norvegicus, UniProt P16257).
T1 construct: from tissue; host or cells: kidney of male Wistar rats (crude membrane preparation)
The data set can be described thus: Binding assay of mitochondrial benzodiazepine receptor (MBR), [3H]4'-chlorodiazepam (Ro5-4864), rat kidney membrane-preparation. The note with it: rat kidney membranes, [3H]4'-chlorodiazepam 0.5 nM, 0° C. for 150 minutes. An outline of the steps: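 Kidney membranes from male Wistar rats were incubated with 0.5 nM [3H]Ro5-4864 in pH 7.4 sodium/potassium phosphate buffer with 100 mM NaCl for 150 min at 0 °C, then filtered. Nonspecific binding was defined with 50 μM diazepam. IC50 was obtained by nonlinear least-squares fitting of specific-binding inhibition.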

The subject of another data set is male Std-Wistar rats. As to the kind of experiment: Forced swimming test (antidepressant effect). The class given is in vivo, rat. The settings on record: 1 mg/kg orally 3 times (24 hours, 4 hours and 1 hour before the test); 6-minute period; vs vehicle, p<0.01. As to the method:
An animal (mouse or rat) which is forced to swim in an inescapable water tank show an immobile posture, thought to reflect a state of behavioral despair, after an initial period of vigorous swimming activity. The forced swimming test, a behavioral despair model, is frequently used for evaluating antidepressant effect since a lot of antidepressants reduce the duration of immobility induced by forced swimming. The antidepressant effect of the compound of the present invention was evaluated in the forced swimming test based on the method of Porsolt R. D. et al. [see; Eur. J. Pharmacol., 47, 379-391 (1978)] with a minor modification.
In the test, a group of five male Std-Wistar rats, weighing 110-150 g, which were selected after training session was used. […]
The test compound (the compound of Example 40) was orally administered 3 times, i.e., 24 hours, 4 hours and 1 hour before the test. One hour after the final oral administration, the rats were put into the water and the immobile time observed during a 6-minute period was recorded. The effect shortening the immobile time in the test compound-treated group was evaluated using a Dunnett's multiple comparison test as compared with the vehicle control group.

Turning to `C[C@H]1CCCN(C(=O)[C@@H]2Cc3ccccc3N2c2ncccn2)C1` [Example 23, (S)-2-[(S)-3-methylpiperidin-1-yl]carbonyl-1-(2-pyrimidinyl)indoline], the melting point was in the range of 212 to 214 °C. This compound also showed a Minimum effective dose with mice (male ddY) of 0.01 mg/kg. In data set [1], this compound came in with an IC50 of 0.949 nM.
In the case of `C[C@@H]1C[C@H](C)CN(C(=O)[C@@H]2Cc3ccccc3N2c2cccnn2)C1` [Example 57, (S)-2-[(cis-3,5-dimethylpiperidin-1-yl)-carbonyl]-1-(3-pyridazinyl)indoline], the Minimum effective dose with mice (male ddY) came out at 0.1 mg/kg. The IC50 in data set [1] worked out at 2.03 nM.
For the compound `C[C@@H]1C[C@H](C)CN(C(=O)[C@@H]2Cc3ccccc3N2c2ncccn2)C1` [Example 24, (S)-2-(cis-3,5-dimethylpiperidin-1-yl)carbonyl-1-(2-pyrimidinyl)indoline], the melting point is 163 to 164 °C. In addition, the Minimum effective dose with mice (male ddY) worked out at 0.001 mg/kg. In data set [1], this compound displayed an IC50 of 0.851 nM.
For `C[C@H]1CCCN(C(=O)[C@@H]2Cc3ccccc3N2c2ccc(=O)n(C)n2)C1` [Example 40, (S)-1-(1-methyl-6-oxo-1,6-dihydropyridazin-3-yl)-2-[[(S)-3-methylpiperidin-1-yl]carbonyl]indoline], the melting point lay within 219 to 221 °C. Besides, the Minimum effective dose with mice (male ddY) turned out to be 1 mg/kg. The “shortening of the immobile time” value in the data set with male Std-Wistar rats is 28%. The compound further showed an IC50 in data set [1] of 6.05 nM.
In the data set with mice (male ddY), `CCn1nc(N2c3ccccc3C[C@H]2C(=O)N2CCC[C@H](C)C2)ccc1=O` [Example 129, (S)-1-(1-ethyl-6-oxo-1,6-dihydropyridazin-3-yl)-2-[[(S)-3-methylpiperidin-1-yl]carbonyl]indoline] came in with a Minimum effective dose of 1 mg/kg. The compound also yielded an IC50 in data set [1] of 5.56 nM.
Compound `C[C@H]1CCCN(C(=O)[C@@H]2Cc3ccccc3N2c2cccnn2)C1` [Example 63, (S)-2-[(S)-3-methylpiperidin-1-yl]carbonyl-1-(3-pyridazinyl)indoline] yielded a melting point of 143 to 145 °C. Further, in the data set on mice (male ddY), the Minimum effective dose amounted to 0.01 mg/kg. The compound also displayed an IC50 in data set [1] of 2.51 nM.
For `C[C@@H]1C[C@H](C)CN(C(=O)[C@@H]2Cc3ccccc3N2c2ccc(=O)n(C)n2)C1` [Example 41, (S)-1-(1-methyl-6-oxo-1,6-dihydropyridazin-3-yl)-2-[(cis-3,5-dimethylpiperidin-1-yl)carbonyl]indoline], in that order: 200 to 204 °C, 0.01 mg/kg and 2.41 nM.
Regarding “2-[((cis-3,5-dimethylpiperidin-1-yl)-carbonyl]-1-(2-pyrimidinyl)indoline [Example 1]”, the Minimum effective dose with mice (male ddY) stood at 0.001 mg/kg. The IC50 in data set [1] is 1.98 nM.
